Results as given in paper PMC7584476, “Safety and efficacy of BAY1436032 in IDH1-mutant AML: phase I study results” (Leukemia, 2020).

Tested on: subjects with mIDH1 advanced AML
Test: Phase I study: safety and tolerability (TEAE, DLT, MTD, ECG)
Type: in vivo
Procedure: This study was an open-label, nonrandomized, multicenter phase I trial. Subjects were screened at 13 hospital sites in 2 countries (USA and Germany). The study was to consist of dose-escalation followed by dose-expansion. The MTD identified in dose-escalation was to be used in the dose-expansion. If MTD was not reached in dose-escalation, a dose for the expansion would be selected based on available PK, pharmacodynamic, safety, and efficacy data. BAY1436032 was administered twice-daily (BID) in continuous 28-day cycles. In dose-escalation, up to 9 evaluable subjects could be enrolled per cohort, with a minimum of 3 dose-limiting toxicity (DLT)-free evaluable subjects required prior to escalating to the next highest dose. Bayesian dose-DLT modeling was performed to help guide dosing decisions.
DLTs were differentially defined for nonhematopoietic versus hematopoietic toxicities. Nonhematopoietic toxicities of ≥grade 3 occurring during the first cycle of treatment were to be considered DLTs with the following exceptions: (1) Alopecia and nausea controlled by medical management; (2) Tumor lysis syndrome if successfully managed clinically and resolved within 7 days without any end-organ damage; (3) Differentiation syndrome (DS) if successfully managed clinically and resolved within 7 days without any end-organ damage; (4) Asymptomatic ≥grade 3 electrolyte abnormalities not considered clinically significant by the investigator. […] For certain toxicities such as laboratory assessments without a clear clinical correlate, a discussion between the investigator and the sponsor determined whether the adverse event (AE) should be assessed as a DLT.
DLTs identified during the first cycle of treatment were used to guide dose-escalation decisions and to determine the MTD, and if safety issues appeared in subsequent cycles they were also to be considered. Hydroxyurea was permitted during the first cycle if white blood cell (WBC) exceeded 20 × 10^9/L and was also permitted for treatment of DS.
Safety and tolerability were evaluated by analysis of adverse events, physical examinations, vital signs, ECOG performance status, and various laboratory assessments. For safety monitoring, subjects were scheduled for clinic visits every week for the initial three cycles of treatment, after which time visits could be reduced to every-other-week with investigator and sponsor agreement. Cardiac function was assessed with triplicate 12-lead electrocardiograms (ECG) at screening, C1-D1, C1-D2, C1-D15, D1 of every subsequent cycle, and at treatment end. […] AEs are presented by the Medical Dictionary for Regulatory Activities (MedDRA) v21.1.

C[C@H]1C[C@@H](n2c(Nc3ccc(OC(F)(F)F)cc3)nc3cc(CCC(=O)O)ccc32)CC(C)(C)C1 [BAY1436032]
TEAE Hypokalaemia Grade 1 (1200 mg BID, n=7): 1
TEAE Hypokalaemia Grade 2 (1200 mg BID, n=7): 0
TEAE Hypokalaemia Grade 3 (1200 mg BID, n=7): 0
TEAE Hyponatraemia Grade 1 (1200 mg BID, n=7): 0
TEAE Hyponatraemia Grade 3 (1200 mg BID, n=7): 0
TEAE Hypophosphataemia Grade 1 (1200 mg BID, n=7): 0
TEAE Hypophosphataemia Grade 2 (1200 mg BID, n=7): 0
TEAE Leukocytosis Grade 2 (1200 mg BID, n=7): 1
TEAE Leukocytosis Grade 3 (1200 mg BID, n=7): 0
TEAE Lung infection Grade 3 (1200 mg BID, n=7): 1
TEAE Lung infection Grade 5 (1200 mg BID, n=7): 0
TEAE Nausea Grade 1 (1200 mg BID, n=7): 2
TEAE Nausea Grade 2 (1200 mg BID, n=7): 0
TEAE Nausea Grade 3 (1200 mg BID, n=7): 0
TEAE Oedema peripheral Grade 1 (1200 mg BID, n=7): 2
TEAE Oedema peripheral Grade 3 (1200 mg BID, n=7): 0
TEAE Pain in extremity Grade 1 (1200 mg BID, n=7): 1
TEAE Pain in extremity Grade 2 (1200 mg BID, n=7): 0
TEAE Pneumonia Grade 1 (1200 mg BID, n=7): 0
TEAE Pneumonia Grade 2 (1200 mg BID, n=7): 1
TEAE Pneumonia Grade 3 (1200 mg BID, n=7): 1
TEAE Pneumonia fungal Grade 2 (1200 mg BID, n=7): 0
TEAE Pneumonia fungal Grade 3 (1200 mg BID, n=7): 0
TEAE Pneumonia fungal Grade 4 (1200 mg BID, n=7): 0
TEAE Productive cough Grade 1 (1200 mg BID, n=7): 1
TEAE Productive cough Grade 2 (1200 mg BID, n=7): 0
TEAE Pyrexia Grade 1 (1200 mg BID, n=7): 1
TEAE Pyrexia Grade 2 (1200 mg BID, n=7): 0
TEAE Pyrexia Grade 3 (1200 mg BID, n=7): 0
TEAE Rash Grade 1 (1200 mg BID, n=7): 1
TEAE Rash Grade 2 (1200 mg BID, n=7): 0
TEAE Sepsis Grade 4 (1200 mg BID, n=7): 0
TEAE Sepsis Grade 5 (1200 mg BID, n=7): 0
TEAE Sinus tachycardia Grade 1 (1200 mg BID, n=7): 0
TEAE Thrombocytopenia Grade 4 (1200 mg BID, n=7): 1
TEAE Vomiting Grade 1 (1200 mg BID, n=7): 0
TEAE Weight decreased Grade 1 (1200 mg BID, n=7): 1
TEAE Weight decreased Grade 2 (1200 mg BID, n=7): 2
TEAE Weight decreased Grade 3 (1200 mg BID, n=7): 0
Related TEAE Decreased appetite Grade 1 (1500 mg BID, n=9): 0
Related TEAE Decreased appetite Grade 2 (1500 mg BID, n=9): 0
Related TEAE Diarrhea Grade 2 (1500 mg BID, n=9): 0
Related TEAE Differentiation syndrome Grade 2 (1500 mg BID, n=9): 1
Related TEAE Differentiation syndrome Grade 3 (1500 mg BID, n=9): 0
Related TEAE Dyspnea Grade 1 (1500 mg BID, n=9): 0
Related TEAE Dyspnea Grade 2 (1500 mg BID, n=9): 0
Related TEAE Fatigue Grade 1 (1500 mg BID, n=9): 0
Related TEAE Fatigue Grade 2 (1500 mg BID, n=9): 0
Related TEAE Fatigue Grade 3 (1500 mg BID, n=9): 1
Related TEAE Hypomagnesaemia Grade 1 (1500 mg BID, n=9): 1
Related TEAE Nausea Grade 1 (1500 mg BID, n=9): 1
Related TEAE Nausea Grade 2 (1500 mg BID, n=9): 0
Related TEAE Sinus tachycardia Grade 1 (1500 mg BID, n=9): 1
Related TEAE Vomiting Grade 1 (1500 mg BID, n=9): 1
TEAE Abdominal pain upper Grade 1 (1500 mg BID, n=9): 2
TEAE Abdominal pain upper Grade 2 (1500 mg BID, n=9): 1
TEAE Acute kidney injury Grade 1 (1500 mg BID, n=9): 0
TEAE Acute kidney injury Grade 2 (1500 mg BID, n=9): 0
TEAE Acute kidney injury Grade 3 (1500 mg BID, n=9): 0
TEAE Anaemia Grade 3 (1500 mg BID, n=9): 0
TEAE Anaemia Grade 4 (1500 mg BID, n=9): 0
TEAE Anxiety Grade 1 (1500 mg BID, n=9): 0
TEAE Anxiety Grade 2 (1500 mg BID, n=9): 1
TEAE Arthralgia Grade 1 (1500 mg BID, n=9): 1
TEAE Arthralgia Grade 2 (1500 mg BID, n=9): 1
TEAE Constipation Grade 1 (1500 mg BID, n=9): 3
TEAE Constipation Grade 2 (1500 mg BID, n=9): 0
TEAE Contusion Grade 1 (1500 mg BID, n=9): 1
TEAE Contusion Grade 2 (1500 mg BID, n=9): 1
TEAE Cough Grade 1 (1500 mg BID, n=9): 0
TEAE Cough Grade 2 (1500 mg BID, n=9): 1
TEAE Decreased appetite Grade 1 (1500 mg BID, n=9): 2
TEAE Decreased appetite Grade 2 (1500 mg BID, n=9): 1
TEAE Decreased appetite Grade 3 (1500 mg BID, n=9): 1
TEAE Diarrhea Grade 1 (1500 mg BID, n=9): 2
TEAE Diarrhea Grade 2 (1500 mg BID, n=9): 1
TEAE Dry skin Grade 1 (1500 mg BID, n=9): 1
TEAE Dyspnoea Grade 1 (1500 mg BID, n=9): 1
TEAE Dyspnoea Grade 2 (1500 mg BID, n=9): 0
TEAE Dyspnoea Grade 3 (1500 mg BID, n=9): 1
TEAE Epistaxis Grade 1 (1500 mg BID, n=9): 2
TEAE Epistaxis Grade 2 (1500 mg BID, n=9): 0
TEAE Epistaxis Grade 3 (1500 mg BID, n=9): 0
TEAE Fall Grade 1 (1500 mg BID, n=9): 2
TEAE Fatigue Grade 1 (1500 mg BID, n=9): 1
TEAE Fatigue Grade 2 (1500 mg BID, n=9): 1
TEAE Fatigue Grade 3 (1500 mg BID, n=9): 2
TEAE Febrile neutropenia Grade 3 (1500 mg BID, n=9): 2
TEAE General physical health deterioration Grade 3 (1500 mg BID, n=9): 2
TEAE General physical health deterioration Grade 5 (1500 mg BID, n=9): 1
TEAE Gingivitis Grade 1 (1500 mg BID, n=9): 0
TEAE Haematuria Grade 1 (1500 mg BID, n=9): 0
TEAE Haematuria Grade 2 (1500 mg BID, n=9): 0
TEAE Haematuria Grade 3 (1500 mg BID, n=9): 1
TEAE Headache Grade 1 (1500 mg BID, n=9): 0
TEAE Headache Grade 2 (1500 mg BID, n=9): 0
TEAE Headache Grade 3 (1500 mg BID, n=9): 1
TEAE Hyperkalaemia Grade 1 (1500 mg BID, n=9): 0
TEAE Hyperkalaemia Grade 4 (1500 mg BID, n=9): 0
TEAE Hypertension Grade 2 (1500 mg BID, n=9): 2
TEAE Hypertension Grade 3 (1500 mg BID, n=9): 0
TEAE Hyperuricaemia Grade 1 (1500 mg BID, n=9): 1
TEAE Hyperuricaemia Grade 3 (1500 mg BID, n=9): 0
TEAE Hypokalaemia Grade 1 (1500 mg BID, n=9): 0
TEAE Hypokalaemia Grade 2 (1500 mg BID, n=9): 1
TEAE Hypokalaemia Grade 3 (1500 mg BID, n=9): 1
TEAE Hyponatraemia Grade 1 (1500 mg BID, n=9): 0
TEAE Hyponatraemia Grade 3 (1500 mg BID, n=9): 1
TEAE Hypophosphataemia Grade 1 (1500 mg BID, n=9): 1
TEAE Hypophosphataemia Grade 2 (1500 mg BID, n=9): 1
TEAE Leukocytosis Grade 2 (1500 mg BID, n=9): 0
TEAE Leukocytosis Grade 3 (1500 mg BID, n=9): 1
TEAE Lung infection Grade 3 (1500 mg BID, n=9): 0
TEAE Lung infection Grade 5 (1500 mg BID, n=9): 0
TEAE Nausea Grade 1 (1500 mg BID, n=9): 1
TEAE Nausea Grade 2 (1500 mg BID, n=9): 1
TEAE Nausea Grade 3 (1500 mg BID, n=9): 2
TEAE Oedema peripheral Grade 1 (1500 mg BID, n=9): 0
TEAE Oedema peripheral Grade 3 (1500 mg BID, n=9): 1
TEAE Pain in extremity Grade 1 (1500 mg BID, n=9): 0
TEAE Pain in extremity Grade 2 (1500 mg BID, n=9): 1
TEAE Pneumonia Grade 1 (1500 mg BID, n=9): 1
TEAE Pneumonia Grade 2 (1500 mg BID, n=9): 0
TEAE Pneumonia Grade 3 (1500 mg BID, n=9): 1
TEAE Pneumonia fungal Grade 2 (1500 mg BID, n=9): 1
TEAE Pneumonia fungal Grade 3 (1500 mg BID, n=9): 1
TEAE Pneumonia fungal Grade 4 (1500 mg BID, n=9): 1
TEAE Productive cough Grade 1 (1500 mg BID, n=9): 0
TEAE Productive cough Grade 2 (1500 mg BID, n=9): 1
TEAE Pyrexia Grade 1 (1500 mg BID, n=9): 2
TEAE Pyrexia Grade 2 (1500 mg BID, n=9): 0
TEAE Pyrexia Grade 3 (1500 mg BID, n=9): 3
TEAE Rash Grade 1 (1500 mg BID, n=9): 0
TEAE Rash Grade 2 (1500 mg BID, n=9): 2
TEAE Sepsis Grade 4 (1500 mg BID, n=9): 0
